Measurements: the supplement of paper PMC10307832

Experiments:
Test in all cases: relative viability (nuclei count vs DMSO), 5 days (fraction); higher = more cells survive
Erlotinib = compound: C#Cc1cccc(Nc2ncnc3cc(OCCOC)c(OCCOC)cc23)c1 [Erlotinib]
Outline: (§1)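 Lung cancer cell lines received five library-drug doses (not always all listed) spaced by √10, pinned on vehicle-anchored 1536-well plates after an overnight stay at 37 °C. Five days later, with no medium change, nuclei were Hoechst-stained, imaged at 4× and counted with MetaXpress. Viability is treated-well nuclei relative to vehicle-well nuclei, as a median across plates. Passing plates had control CV below 25% and at least one doubling.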

Phenformin = compound: N=C(N)NC(=N)NCCc1ccccc1 [Phenformin] (anchor plate); conditions: 250 µM
Outline: as §1

AT9283 = compound: O=C(Nc1c[nH]nc1-c1nc2ccc(CN3CCOCC3)cc2[nH]1)NC1CC1 [AT9283]
Outline: as §1

Cell Line	relative viability (Erlotinib; 0.02 µM)	relative viability (Erlotinib; 0.2 µM)	relative viability (Erlotinib; 0.6325 µM)	relative viability (Erlotinib; 2 µM)	relative viability (Phenformin)	relative viability (AT9283; 0.003 µM)	relative viability (AT9283; 0.03 µM)	relative viability (AT9283; 0.09487 µM)	relative viability (AT9283; 0.3 µM)
NCI-H460	0.994	0.959	1.05	0.96	0.529	0.985	0.931	0.542	0.21
HCC-44	0.994	0.961	1.01	0.975	0.218	0.988	1	0.614	0.335
NCI-H2087	1.03	1.03	1.07	0.879	0.453	0.988	0.63	0.269	0.16
UMC-11	0.956	0.944	1.18	0.964	0.318	0.903	0.171	0.146	0.212
NCI-H1355	0.978	0.878	0.956	0.755	0.456	0.956	0.971	0.68	0.197
H3255	0.946	0.709	0.514	0.225	0.386	0.998	0.95	0.714	0.177
NCI-H2085	0.932	0.851	0.843	0.699	0.724	1	0.946	0.937	0.447
IA-LM	0.947	0.777	1.08	0.885	–	0.853	0.735	0.267	0.111
LCLC-103H	1.03	0.919	1	0.929	0.348	0.885	1.02	0.926	0.376
NCI-H2405	0.986	1	1.12	0.956	0.379	1	0.965	0.519	0.256
NCI-H1666	0.973	0.928	0.855	0.728	0.571	0.975	0.847	0.66	0.535
COR-L 105	0.931	0.515	0.4	0.334	0.551	0.983	0.4	0.334	0.334
ABC-1	0.827	0.881	1.01	0.81	0.25	0.831	0.301	0.3	0.235
EPLC-272H	1.06	0.882	1.02	0.724	0.321	0.886	0.81	0.203	0.156
NCI-H1792	0.875	0.821	0.92	0.742	0.343	0.887	0.886	0.943	0.376
NCI-H2170	1.02	0.996	0.872	0.656	0.439	0.991	0.864	0.471	0.197
NCI-H2347	1.03	1.06	0.987	0.952	0.421	1.16	1	0.597	0.514
NCI-H1395	0.865	0.88	1.08	0.981	0.451	0.789	0.662	0.39	0.393
